Experimental data taken from patent US20250120975A1, “INTEGRIN INHIBITORS FOR TREATMENT OF PRIMARY SCLEROSING CHOLANGITIS” (Pliant Therapeutics, Inc., priority 2023, published 2025).
pIC50: −log10 of the molar value. Like-named read-outs stand apart in the source and are kept apart here.

Columns and labels:
[1] = system: other integrin receptors; test: Integrin-ligand binding assays (selectivity); details: including leukocyte-expressed integrins
[2] = system: BALB/c.Mdr2−/− mouse model of biliary fibrosis; test: Relative and total liver collagen (hydroxyproline); assay type: in vivo; details: 6 weeks
Excerpt: (§1) The tissue source is BALBc.Mdr2-/−male mice that were 6 weeks old. The Mdr2(abcb4)−/− mouse model of sclerosing cholangitis has been previously described and is a model of spontaneously progressive hepatic fibrosis in mice with deletion of the biliary phospholipid flippase on fibrosis-susceptible background (Mdr2(abcb4)^−/−. BALB/c mouse). See N. Ikenaga, et al. (2015) Am J Pathol. 185 (2): 325-334, the entire contents of which are hereby incorporated by reference in their entirety.
(S)-4-((2-methoxyethyl)(4-(5,6,7,8-tetrahydro-1,8-naphthyridin-2-yl)butyl)amino)-2-(quinazolin-4-ylamino)butanoic acid (or PBS) was dosed once daily orally at 100 mg/kg, 300 mg/kg or 1000 mg/kg (see Table B-2) starting at 6 weeks after birth of the subject and continuing for 6 weeks. All animals were euthanized and necropsied at the end of week 12.
Liver collagen was determined biochemically as hydroxyproline (OHP). See N. Ikenaga, et al. (2015) Am J Pathol. 185 (2): 325-334, the entire contents of which are hereby incorporated by reference in their entirety. Two fresh liver pieces from the left and right liver lobe (120-160 mg each) were hydrolyzed in 2 mL 6N HCl at a temperature of 110° C. for 16 h. Moreover, 20 μL of hydrolysate was evaporated under N2 and OHP was quantified using the chloramine-T/dimethylamino-benzaldehyde method. OHP levels were used to calculate relative (per 100 mg of wet liver) and total (obtained by multiplying liver weights with relative hepatic OHP) hepatic collagen content.

[3] = system: subjects with PSC and suspected liver fibrosis
[4] = system: subjects with PSC and concomitant IBD; test: Phase 2a INTEGRIS-PSC: IBD symptoms (partial Mayo Score); assay type: in vivo, human
Excerpt: Questionnaires to assess PROs will be administered at Baseline, Weeks 4 and 12(Parts 1, 2, and 3) and at Week 24 (Part 3 only), and will include the Chronic Liver Disease Questionnaire (CLDQ), the Itch Numeric Rating Scale (NRS), and the Partial Mayo Score (PMS), when available for use. See A. N. Naegeli, et al. (2015) International Journal of Dermatology 54 (6): 715-722 and Z. M. Younossi, et al. (1999) Gut 45:295-300, the entire contents of which are hereby incorporated by reference in their entirety.

[5] = target: αVβ6 integrin (Homo sapiens, UniProt P06756+P18564); test: Inhibition of αVβ6 integrin (IC50); assay type: binding; details: read-out: 50% inhibitory concentration [IC50] αVβ6
[6] = system: BALB/c.Mdr2−/− mouse model of biliary fibrosis; test: Direct (invasive) portal venous pressure measurement; assay type: in vivo; details: 100, 300, 1000 mg/kg PO/QD, 6 weeks
Experimental: Antifibrotic activity of (S)-4-((2-methoxyethyl)(4-(5,6,7,8-tetrahydro-1,8-naphthyridin-2-yl)butyl)amino)-2-(quinazolin-4-ylamino)butanoic acid was tested in the BALBc.Mdr2−/− murine model of liver biliary fibrosis. […] BALBc.Mdr2−/− mice develop periductular fibrotic lesions at 4 weeks with rapid and progressive fibrotic progression. Bridging fibrosis and early cirrhosis is observed at 12 weeks along with severe portal hypertension and enhanced collagen deposition.
as §1, with “entirety. […]” for “entirety.”
After laparotomy, the portal vein of the mouse subject was cannulated through an ileocolic vein, and portal pressure was measured directly by inserting a 1.2-Fr high-fidelity pressure catheter. Pressure signals were recorded at 2 kHz for 5 Min, and analyzed using PowerLab software. […]

[7] = 1000 mg/kg, relative to the vehicle control
[8] = 40 mg (n = 24), 12 weeks, Example B-3
[9] = 40 mg once daily, Week 12, n = 24
[10] = 80 mg (n = 20), 12 weeks, Example B-3
[11] = 80 mg once daily, Week 12, n = 20
[12] = 160 mg (n = 20), 12 weeks, Example B-3
[13] = 160 mg once daily, Week 12, n = 20
[14] = 320 mg once daily, Week 12, n = 27
[15] = 320 mg, Example B-5 24-week data (Table D-7), n = 27
[16] = 40, 80, 160, and 320 mg pooled, Week 12, n = 91
[17] = All (n = 64), 12 weeks, Example B-3

Chain of αVβ6 integrin (P06756 31-1048): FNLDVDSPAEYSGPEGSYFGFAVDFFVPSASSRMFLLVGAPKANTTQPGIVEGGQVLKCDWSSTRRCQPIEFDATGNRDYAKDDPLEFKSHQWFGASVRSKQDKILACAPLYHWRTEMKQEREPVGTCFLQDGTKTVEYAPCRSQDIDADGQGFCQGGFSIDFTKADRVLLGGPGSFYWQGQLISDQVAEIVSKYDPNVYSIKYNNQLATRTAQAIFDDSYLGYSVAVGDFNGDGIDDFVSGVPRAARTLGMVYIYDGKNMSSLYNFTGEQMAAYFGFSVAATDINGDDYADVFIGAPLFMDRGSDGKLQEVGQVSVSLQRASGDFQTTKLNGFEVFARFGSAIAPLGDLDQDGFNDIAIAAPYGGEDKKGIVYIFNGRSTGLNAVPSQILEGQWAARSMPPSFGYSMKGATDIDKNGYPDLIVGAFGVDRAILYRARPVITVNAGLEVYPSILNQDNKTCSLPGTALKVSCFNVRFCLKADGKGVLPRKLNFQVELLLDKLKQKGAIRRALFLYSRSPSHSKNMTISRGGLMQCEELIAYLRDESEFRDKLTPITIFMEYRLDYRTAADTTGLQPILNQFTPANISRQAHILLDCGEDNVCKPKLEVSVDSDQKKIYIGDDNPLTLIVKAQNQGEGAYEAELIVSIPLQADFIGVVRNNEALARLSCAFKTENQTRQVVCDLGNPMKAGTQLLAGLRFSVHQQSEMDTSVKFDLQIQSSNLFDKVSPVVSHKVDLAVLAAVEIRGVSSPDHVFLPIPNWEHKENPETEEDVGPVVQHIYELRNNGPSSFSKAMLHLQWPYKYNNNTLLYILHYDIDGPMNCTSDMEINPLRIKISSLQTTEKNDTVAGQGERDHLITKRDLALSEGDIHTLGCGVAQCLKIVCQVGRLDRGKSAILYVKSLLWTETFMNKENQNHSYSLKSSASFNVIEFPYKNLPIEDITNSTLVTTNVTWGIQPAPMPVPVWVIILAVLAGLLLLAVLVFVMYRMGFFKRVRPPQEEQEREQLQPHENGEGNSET
Chain of αVβ6 integrin (P18564 22-788): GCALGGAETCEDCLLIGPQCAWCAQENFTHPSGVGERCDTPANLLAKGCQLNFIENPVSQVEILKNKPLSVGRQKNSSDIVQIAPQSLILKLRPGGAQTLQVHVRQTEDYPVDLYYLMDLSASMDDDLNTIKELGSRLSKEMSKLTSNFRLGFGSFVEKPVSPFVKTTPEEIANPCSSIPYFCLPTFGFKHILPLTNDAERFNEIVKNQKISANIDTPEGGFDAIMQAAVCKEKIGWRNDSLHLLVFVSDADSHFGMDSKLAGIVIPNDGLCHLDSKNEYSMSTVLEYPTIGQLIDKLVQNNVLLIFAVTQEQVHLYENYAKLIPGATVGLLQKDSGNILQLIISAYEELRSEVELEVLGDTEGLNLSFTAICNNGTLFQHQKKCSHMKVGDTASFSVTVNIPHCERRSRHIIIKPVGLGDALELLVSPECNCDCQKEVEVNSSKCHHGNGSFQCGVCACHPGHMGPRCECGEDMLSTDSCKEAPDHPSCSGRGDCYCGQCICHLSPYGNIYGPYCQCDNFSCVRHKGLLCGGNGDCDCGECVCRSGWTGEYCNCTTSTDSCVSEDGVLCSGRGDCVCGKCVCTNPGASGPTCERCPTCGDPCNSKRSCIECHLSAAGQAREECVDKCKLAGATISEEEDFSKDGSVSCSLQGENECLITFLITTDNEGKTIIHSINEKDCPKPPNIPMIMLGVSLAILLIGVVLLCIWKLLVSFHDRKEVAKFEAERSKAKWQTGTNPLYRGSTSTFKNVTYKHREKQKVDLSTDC

Compound: COCCN(CCCCc1ccc2c(n1)NCCC2)CC[C@H](Nc1ncnc2ccccc12)C(=O)O [Bexotegrast, (S)-4-((2-methoxyethyl)(4-(5,6,7,8-tetrahydro-1,8-naphthyridin-2-yl)butyl)amino)-2-(quinazolin-4-ylamino)butanoic acid]
- selectivity for αVβ6 and αVβ1 over other integrin receptors [1]: highly selective
- reduction in total hepatic collagen ([2]; 1000 mg/kg PO/QD): approximately 75%
- relative hepatic collagen content (normalized to liver weight) [2, 7]: decreased
- total hepatic collagen content [2, 7]: decreased
- COVID-19 TEAE, % of Participants Reporting [3, 8]: (8.3) %
- COVID-19 TEAE, n of Participants Reporting [3, 8]: 2 n
- TEAE Leading to Death, n of Participants Reporting [3, 8]: 0 n
- COVID-19 TEAE, % of Participants Reporting [3, 9]: (8.3) %
- COVID-19 TEAE, n of Participants Reporting [3, 9]: 2
- TEAE Leading to Death, n of Participants Reporting [3, 9]: 0
- TEAE Leading to Withdrawal of bexotegrast, n of Participants Reporting ([3]; 40 mg once daily, Week 12, n = 24, COVID-19/dyspnoea/nasal congestion): 1
- TEAE leading to withdrawal: AE Preferred Term ([3]; 40 mg treatment group, Example B-3): COVID-19/
- COVID-19 TEAE, % of Participants Reporting [3, 10]: (5.0) %
- COVID-19 TEAE, n of Participants Reporting [3, 10]: 1 n
- TEAE Leading to Death, n of Participants Reporting [3, 10]: 0 n
- COVID-19 TEAE, % of Participants Reporting [3, 11]: (5.0) %
- COVID-19 TEAE, n of Participants Reporting [3, 11]: 1
- TEAE Leading to Death, n of Participants Reporting [3, 11]: 0
- COVID-19 TEAE, n of Participants Reporting [3, 12]: 0 n
- TEAE Leading to Death, n of Participants Reporting [3, 12]: 0 n
- COVID-19 TEAE, n of Participants Reporting [3, 13]: 0
- TEAE Leading to Death, n of Participants Reporting [3, 13]: 0
- COVID-19 TEAE, % of Participants Reporting [3, 14]: (14.8) %
- COVID-19 TEAE, n of Participants Reporting [3, 14]: 4
- TEAE Leading to Death, n of Participants Reporting [3, 14]: 0
- TEAE Leading to Death, n of Participants Reporting After Week 12 ([3]; 320 mg, After Week 12 (Table D-4), n = 27): 0
- COVID-19 TEAE, % of Participants Reporting [3, 15]: 18.5%
- COVID-19 TEAE, n of Participants Reporting [3, 15]: 5
- TEAE Leading to Death, n of Participants Reporting ([3]; 320 mg, after 24 weeks (Table D-3), n = 27): 0
- COVID-19 TEAE, % of Participants Reporting [3, 16]: (7.7) %
- COVID-19 TEAE, n of Participants Reporting [3, 16]: 7
- TEAE Leading to Death, n of Participants Reporting [3, 16]: 0
- COVID-19 TEAE, % of Participants Reporting [3, 17]: (4.7) %
- COVID-19 TEAE, n of Participants Reporting [3, 17]: 3 n
- TEAE Leading to Death, n of Participants Reporting [3, 17]: 0 n
- Cholangitis (TEAE), n of Participants Reporting ([3]; human, in vivo, 12 weeks): 2 n
- Fatigue (TEAE), n of Participants Reporting ([3]; human, in vivo, 12 weeks): 9 n
- Frequent bowel movements (TEAE), % of Participants Reporting ([3]; human, in vivo, 12 weeks): (4.7) %
- Frequent bowel movements (TEAE), n of Participants Reporting ([3]; human, in vivo, 12 weeks): 3 n
- Headache (TEAE), n of Participants Reporting ([3]; human, in vivo, 12 weeks): 6 n
- Nausea (TEAE), n of Participants Reporting ([3]; human, in vivo, 12 weeks): 6 n
- Pruritus (TEAE), n of Participants Reporting ([3]; human, in vivo, 12 weeks): 9 n
- Serious TEAE Related to study drug, n of Participants Reporting ([3]; human, in vivo, 12 weeks): 0 n
- Serious TEAE, % of Participants Reporting ([3]; human, in vivo, 12 weeks): (3.1) %
- Serious TEAE, n of Participants Reporting ([3]; human, in vivo, 12 weeks): 2 n
- TEAE Leading to Early Termination from Study, % of Participants Reporting ([3]; human, in vivo, 12 weeks): (1.6)^1%
- TEAE Leading to Early Termination from Study, n of Participants Reporting ([3]; human, in vivo, 12 weeks): 1 n
- TEAE Leading to Interruption of Study Drug, % of Participants Reporting ([3]; human, in vivo, 12 weeks): (1.6)^1%
- TEAE Leading to Interruption of Study Drug, n of Participants Reporting ([3]; human, in vivo, 12 weeks): 1 n
- TEAE Leading to Withdrawal of Study Drug, % of Participants Reporting ([3]; human, in vivo, 12 weeks): (4.7)^2, 3, 4%
- TEAE Leading to Withdrawal of Study Drug, n of Participants Reporting ([3]; human, in vivo, 12 weeks): 3 n
- TEAE Related to study drug, % of Participants Reporting ([3]; human, in vivo, 12 weeks): (17.2) %
- TEAE Related to study drug, n of Participants Reporting ([3]; human, in vivo, 12 weeks): 11 n
- TEAE of CTCAE Grade 3 or Higher Related to study drug, n of Participants Reporting ([3]; human, in vivo, 12 weeks): 0 n
- TEAE of CTCAE Grade 3 or Higher, % of Participants Reporting ([3]; human, in vivo, 12 weeks): (6.3) %
- TEAE of CTCAE Grade 3 or Higher, n of Participants Reporting ([3]; human, in vivo, 12 weeks): 4 n
- TEAE, % of Participants Reporting ([3]; human, in vivo, 12 weeks): (64.1) %
- TEAE, n of Participants Reporting ([3]; human, in vivo, 12 weeks): 41 n
- AEs of pruritus and cholangitis relative to placebo ([3]; in vivo): occurred less frequently
- IBD symptoms in patients with IBD ([4]; 40, 80, 160 mg, 12 weeks, Example B-3): no clinically-relevant changes
- IBD symptoms as measured by partial Mayo Score ([4]; patients with concomitant IBD, Example B-4): no change
- pIC50 [5]: 8.24
- portal venous pressure [6]: did not induce any changes
